Assay results: PubChem BioAssay AID1259407 (Chemical Carcinogenesis Research Information System (CCRIS), 2018)
Activity calls are given as the source filed them. No rule for the calls is given here.

Tested on: CCRIS mutagenicity, Ames/micronucleus/aberration tests
Assay: CCRIS mutagenicity studies
[1] = Test System: AMES SALMONELLA TYPHIMURIUM, Strain/Indicator: TA98, Metabolic Activation: NONE, Method: STANDARD PLATE
[2] = Test System: AMES SALMONELLA TYPHIMURIUM, Strain/Indicator: TA100, Metabolic Activation: NONE, Method: STANDARD PLATE
[3] = Test System: AMES SALMONELLA TYPHIMURIUM, Strain/Indicator: TA1537, Metabolic Activation: NONE, Method: STANDARD PLATE
[4] = Test System: AMES SALMONELLA TYPHIMURIUM, Strain/Indicator: TA1538, Metabolic Activation: NONE, Method: STANDARD PLATE
[5] = Test System: AMES SALMONELLA TYPHIMURIUM, Strain/Indicator: TA97, Metabolic Activation: NONE, Method: STANDARD PLATE
[6] = Test System: AMES SALMONELLA TYPHIMURIUM, Strain/Indicator: TA100, Metabolic Activation: RAT, LIVER, S-9, AROCLOR 1254, Method: STANDARD PLATE
[7] = Test System: AMES SALMONELLA TYPHIMURIUM, Strain/Indicator: TA1535, Metabolic Activation: RAT, LIVER, S-9, AROCLOR 1254, Method: STANDARD PLATE
[8] = Test System: AMES SALMONELLA TYPHIMURIUM, Strain/Indicator: TA1537, Metabolic Activation: RAT, LIVER, S-9, AROCLOR 1254, Method: STANDARD PLATE

With `Nc1ccn([C@@H]2C=C(CO)[C@@H](O)[C@H]2O)c(=O)n1` the mutagenic call (Test System: AMES SALMONELLA TYPHIMURIUM, Strain/Indicator: TA98, Metabolic Activation: HAMSTER, LIVER, S-9, AROCLOR 1254 (10%), Method: STANDARD PLATE) was “inactive; negative”, the mutagenic call [1] was “inactive; negative” and the mutagenic call (Test System: AMES SALMONELLA TYPHIMURIUM, Strain/Indicator: TA98, Metabolic Activation: RAT, LIVER, S-9, AROCLOR 1254 (10%), Method: STANDARD PLATE) was “inactive; negative”. The mutagenic call (Test System: AMES SALMONELLA TYPHIMURIUM, Strain/Indicator: TA100, Metabolic Activation: HAMSTER, LIVER, S-9, AROCLOR 1254 (10%), Method: STANDARD PLATE) was “inactive; negative”, the mutagenic call [2] was “inactive; negative” and the mutagenic call (Test System: AMES SALMONELLA TYPHIMURIUM, Strain/Indicator: TA100, Metabolic Activation: RAT, LIVER, S-9, AROCLOR 1254 (10%), Method: STANDARD PLATE) was “inactive; negative”. For the same compound, the mutagenic call (Test System: AMES SALMONELLA TYPHIMURIUM, Strain/Indicator: TA1535, Metabolic Activation: HAMSTER, LIVER, S-9, AROCLOR 1254 (10%), Method: STANDARD PLATE) was “inactive; negative”, the mutagenic call (Test System: AMES SALMONELLA TYPHIMURIUM, Strain/Indicator: TA1535, Metabolic Activation: NONE, Method: STANDARD PLATE) was “inactive; negative” and the mutagenic call (Test System: AMES SALMONELLA TYPHIMURIUM, Strain/Indicator: TA1535, Metabolic Activation: RAT, LIVER, S-9, AROCLOR 1254 (10%), Method: STANDARD PLATE) was “inactive; negative”. For the same compound, the mutagenic call (Test System: AMES SALMONELLA TYPHIMURIUM, Strain/Indicator: TA1537, Metabolic Activation: HAMSTER, LIVER, S-9, AROCLOR 1254 (10%), Method: STANDARD PLATE) was “inactive; negative”, the mutagenic call [3] was “inactive; negative” and the mutagenic call (Test System: AMES SALMONELLA TYPHIMURIUM, Strain/Indicator: TA1537, Metabolic Activation: RAT, LIVER, S-9, AROCLOR 1254 (10%), Method: STANDARD PLATE) was “inactive; negative”. For the same compound, the mutagenic call (Test System: AMES SALMONELLA TYPHIMURIUM, Strain/Indicator: TA1538, Metabolic Activation: HAMSTER, LIVER, S-9, AROCLOR 1254 (10%), Method: STANDARD PLATE) was “inactive; negative”, the mutagenic call [4] was “inactive; negative” and the mutagenic call (Test System: AMES SALMONELLA TYPHIMURIUM, Strain/Indicator: TA1538, Metabolic Activation: RAT, LIVER, S-9, AROCLOR 1254 (10%), Method: STANDARD PLATE) was “inactive; negative”. For the same compound, the mutagenic call (Test System: MOUSE LYMPHOMA, Strain/Indicator: L5178Y (TK+/TK-), Metabolic Activation: RAT, LIVER, S-9, AROCLOR 1254, Method: SUSPENSION/PLATE) was “active; positive. reevaluation of results: positive” and the mutagenic call (Test System: Mouse lymphoma, Strain/Indicator: L5178Y (tk+/tk-), Metabolic Activation: None, Method: Suspension/plate) was “active; positive”.

For `Nc1ccc2ccccc2c1N=Nc1ccc([N+](=O)[O-])cc1`, the mutagenic call (Test System: AMES SALMONELLA TYPHIMURIUM, Strain/Indicator: TA97, Metabolic Activation: HAMSTER, LIVER, S-9, AROCLOR 1254 (10%), Method: PREINCUBATION) was “active; positive”, the mutagenic call (Test System: AMES SALMONELLA TYPHIMURIUM, Strain/Indicator: TA97, Metabolic Activation: NONE, Method: PREINCUBATION) was “active; positive” and the mutagenic call (Test System: AMES SALMONELLA TYPHIMURIUM, Strain/Indicator: TA97, Metabolic Activation: RAT, LIVER, S-9, AROCLOR 1254 (10%), Method: PREINCUBATION) was “active; positive”. The mutagenic call (Test System: AMES SALMONELLA TYPHIMURIUM, Strain/Indicator: TA98, Metabolic Activation: HAMSTER, LIVER, S-9, AROCLOR 1254 (10%), Method: PREINCUBATION) was “active; positive”, the mutagenic call (Test System: AMES SALMONELLA TYPHIMURIUM, Strain/Indicator: TA98, Metabolic Activation: NONE, Method: PREINCUBATION) was “active; positive” and the mutagenic call (Test System: AMES SALMONELLA TYPHIMURIUM, Strain/Indicator: TA98, Metabolic Activation: RAT, LIVER, S-9, AROCLOR 1254 (10%), Method: PREINCUBATION) was “active; positive”. The mutagenic call (Test System: AMES SALMONELLA TYPHIMURIUM, Strain/Indicator: TA100, Metabolic Activation: HAMSTER, LIVER, S-9, AROCLOR 1254 (10%), Method: PREINCUBATION) was “active; positive”, the mutagenic call (Test System: AMES SALMONELLA TYPHIMURIUM, Strain/Indicator: TA100, Metabolic Activation: NONE, Method: PREINCUBATION) was “inactive; negative” and the mutagenic call (Test System: AMES SALMONELLA TYPHIMURIUM, Strain/Indicator: TA100, Metabolic Activation: RAT, LIVER, S-9, AROCLOR 1254 (10%), Method: PREINCUBATION) was “active; positive”. The mutagenic call (Test System: AMES SALMONELLA TYPHIMURIUM, Strain/Indicator: TA1535, Metabolic Activation: HAMSTER, LIVER, S-9, AROCLOR 1254 (10%), Method: PREINCUBATION) was “inactive; negative”, the mutagenic call (Test System: AMES SALMONELLA TYPHIMURIUM, Strain/Indicator: TA1535, Metabolic Activation: NONE, Method: PREINCUBATION) was “inactive; negative” and the mutagenic call (Test System: AMES SALMONELLA TYPHIMURIUM, Strain/Indicator: TA1535, Metabolic Activation: RAT, LIVER, S-9, AROCLOR 1254 (10%), Method: PREINCUBATION) was “inactive; negative”.

With `NNc1nnc(NN)c2ccccc12` the mutagenic call [5] was “active; positive”, the mutagenic call (Test System: AMES SALMONELLA TYPHIMURIUM, Strain/Indicator: TA98, Metabolic Activation: RAT, LIVER, S-9, AROCLOR 1254, Method: STANDARD PLATE) was “active; positive” and the mutagenic call [6] was “inactive; negative”. The mutagenic call (Test System: AMES SALMONELLA TYPHIMURIUM, Strain/Indicator: TA102, Metabolic Activation: NONE, Method: STANDARD PLATE) was “active; positive”, the mutagenic call (Test System: AMES SALMONELLA TYPHIMURIUM, Strain/Indicator: TA104, Metabolic Activation: NONE, Method: STANDARD PLATE) was “inactive; negative” and the mutagenic call [7] was “inactive; negative”. For the same compound, the mutagenic call [3] was “active; positive”, the mutagenic call [8] was “active; positive” and the mutagenic call [4] was “active; positive”.

With `c1cc2cccc3c4cccc5cccc(c(c1)c23)c54` the mutagenic call [5] was “inactive; negative”, the mutagenic call (Test System: AMES SALMONELLA TYPHIMURIUM, Strain/Indicator: TA97, Metabolic Activation: RAT, LIVER, S-9, PCB, Method: STANDARD PLATE) was “active; positive” and the mutagenic call (Test System: AMES SALMONELLA TYPHIMURIUM, Strain/Indicator: TA97A, Metabolic Activation: RAT, LIVER, S-9, AROCLOR 1254, Method: STANDARD PLATE) was “active; positive”. For the same compound, the mutagenic call [1] was “inactive; negative”, the mutagenic call (Test System: AMES SALMONELLA TYPHIMURIUM, Strain/Indicator: TA98, Metabolic Activation: RAT, LIVER, S-9, AROCLOR 1254 (20 OR 50 µL S-9), Method: STANDARD PLATE) was “active; positive” and the mutagenic call (Test System: AMES SALMONELLA TYPHIMURIUM, Strain/Indicator: TA98, Metabolic Activation: RAT, LIVER, S-9, PCB, Method: STANDARD PLATE) was “active; positive”. For the same compound, the mutagenic call [2] was “inactive; negative”, the mutagenic call (Test System: AMES SALMONELLA TYPHIMURIUM, Strain/Indicator: TA100, Metabolic Activation: RAT, LIVER, S-9, AROCLOR 1254 (50 µL S-9), Method: STANDARD PLATE) was “active; positive” and the mutagenic call [6] was “active; positive”. The mutagenic call (Test System: AMES SALMONELLA TYPHIMURIUM, Strain/Indicator: TA100, Metabolic Activation: RAT, LIVER, S-9, PCB, Method: STANDARD PLATE) was “active; positive”, the mutagenic call [7] was “active; positive” and the mutagenic call [8] was “active; positive”.
